The term IC50 denotes the concentration that gives 50% inhibition.

The source of these data is ChEMBL document CHEMBL4130358, “Chemoselective synthesis and biological evaluation of arylated 2-(Trifluoromethyl) quinolines as nucleotide pyrophosphatase (NPPs) inhibitors” (Eur J Med Chem, 2017).

A value given as a limit tells only on which side of the number the result lay.

The target in assay [1] is T1, Ectonucleotide pyrophosphatase/phosphodiesterase family member 1 (Homo sapiens, UniProt P22413).
T1 sequence (P22413 whole entry): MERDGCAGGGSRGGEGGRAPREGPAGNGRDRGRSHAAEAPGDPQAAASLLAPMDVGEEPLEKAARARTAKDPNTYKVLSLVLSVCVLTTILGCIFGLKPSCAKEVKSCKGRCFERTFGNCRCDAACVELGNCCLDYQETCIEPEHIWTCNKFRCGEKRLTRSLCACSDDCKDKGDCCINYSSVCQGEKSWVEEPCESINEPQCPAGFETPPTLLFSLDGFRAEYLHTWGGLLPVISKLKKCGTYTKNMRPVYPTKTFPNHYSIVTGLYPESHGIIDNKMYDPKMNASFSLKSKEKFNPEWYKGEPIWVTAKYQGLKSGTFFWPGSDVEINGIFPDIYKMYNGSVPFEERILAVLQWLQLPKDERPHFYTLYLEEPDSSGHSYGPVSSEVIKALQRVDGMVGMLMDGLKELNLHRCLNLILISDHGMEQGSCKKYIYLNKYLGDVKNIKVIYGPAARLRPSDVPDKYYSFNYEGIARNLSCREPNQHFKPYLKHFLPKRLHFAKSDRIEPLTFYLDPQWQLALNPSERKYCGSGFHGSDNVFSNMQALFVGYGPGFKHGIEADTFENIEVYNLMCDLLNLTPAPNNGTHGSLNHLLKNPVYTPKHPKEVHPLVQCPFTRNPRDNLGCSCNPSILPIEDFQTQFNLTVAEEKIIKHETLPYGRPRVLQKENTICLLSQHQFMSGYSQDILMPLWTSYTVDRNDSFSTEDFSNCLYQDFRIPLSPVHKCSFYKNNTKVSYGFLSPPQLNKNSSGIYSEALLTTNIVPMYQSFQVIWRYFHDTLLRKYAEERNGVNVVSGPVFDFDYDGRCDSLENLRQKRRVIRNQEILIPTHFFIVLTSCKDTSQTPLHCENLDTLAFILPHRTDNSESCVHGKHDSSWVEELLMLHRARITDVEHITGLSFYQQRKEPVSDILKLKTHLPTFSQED
Briefly: Inhibition of human full length NPP1 expressed in African green monkey COS7 cell membrane fraction using p-nitrophenyl-5'-thymidine monophosphate as substrate preincubated for 10 mins followed by substrate addition measured after 30 mins.

Assay [2] concerns the target T2, Ectonucleotide pyrophosphatase/phosphodiesterase family member 3 (Homo sapiens, UniProt O14638).
T2 sequence (O14638 whole entry): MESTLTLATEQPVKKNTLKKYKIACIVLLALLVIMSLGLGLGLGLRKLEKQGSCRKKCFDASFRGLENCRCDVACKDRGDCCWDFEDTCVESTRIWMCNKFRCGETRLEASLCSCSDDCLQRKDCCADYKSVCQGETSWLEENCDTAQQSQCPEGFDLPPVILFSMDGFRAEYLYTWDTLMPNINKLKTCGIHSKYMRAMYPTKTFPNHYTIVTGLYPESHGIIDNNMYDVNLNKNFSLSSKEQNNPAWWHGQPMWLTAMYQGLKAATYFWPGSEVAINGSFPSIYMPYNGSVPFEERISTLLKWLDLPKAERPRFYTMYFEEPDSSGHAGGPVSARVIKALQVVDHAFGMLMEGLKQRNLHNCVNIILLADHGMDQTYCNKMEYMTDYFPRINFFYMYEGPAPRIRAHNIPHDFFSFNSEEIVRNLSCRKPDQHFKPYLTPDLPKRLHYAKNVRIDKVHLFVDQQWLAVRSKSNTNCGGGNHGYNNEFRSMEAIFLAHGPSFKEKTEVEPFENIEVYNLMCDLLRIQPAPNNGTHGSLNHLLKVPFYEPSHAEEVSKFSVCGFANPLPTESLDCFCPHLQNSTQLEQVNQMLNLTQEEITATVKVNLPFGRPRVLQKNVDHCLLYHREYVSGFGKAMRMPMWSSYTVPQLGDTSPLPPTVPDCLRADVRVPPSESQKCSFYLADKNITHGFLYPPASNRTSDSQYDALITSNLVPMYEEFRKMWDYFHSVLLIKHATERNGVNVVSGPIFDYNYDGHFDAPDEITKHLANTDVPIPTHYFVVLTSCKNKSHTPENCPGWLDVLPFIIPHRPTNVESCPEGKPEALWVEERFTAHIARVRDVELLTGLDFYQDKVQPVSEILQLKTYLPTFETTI
Put plainly: Inhibition of human full length NPP3 expressed in African green monkey COS7 cell membrane fraction using p-nitrophenyl-5'-thymidine monophosphate as substrate preincubated for 10 mins followed by substrate addition measured after 30 mins.

The target in assay [3] is T3, Ectonucleoside triphosphate diphosphohydrolase 1 (Homo sapiens, UniProt P49961).
T3 sequence (P49961 whole entry): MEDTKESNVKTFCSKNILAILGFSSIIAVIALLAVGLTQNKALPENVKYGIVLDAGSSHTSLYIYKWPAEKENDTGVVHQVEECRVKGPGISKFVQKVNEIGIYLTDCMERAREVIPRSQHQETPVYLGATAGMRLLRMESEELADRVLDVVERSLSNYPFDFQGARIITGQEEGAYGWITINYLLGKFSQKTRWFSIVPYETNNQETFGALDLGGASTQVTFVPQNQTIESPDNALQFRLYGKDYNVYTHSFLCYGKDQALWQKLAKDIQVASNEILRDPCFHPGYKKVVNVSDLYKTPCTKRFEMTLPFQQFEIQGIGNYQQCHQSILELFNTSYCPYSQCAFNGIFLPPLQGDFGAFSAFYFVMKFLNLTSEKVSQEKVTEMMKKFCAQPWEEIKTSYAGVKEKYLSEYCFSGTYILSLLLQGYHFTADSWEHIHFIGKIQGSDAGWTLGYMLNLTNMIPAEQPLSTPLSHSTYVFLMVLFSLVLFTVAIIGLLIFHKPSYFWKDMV
Briefly: Inhibition of human NTPDase1 expressed in African green monkey COS7 cell membrane fraction using ATP as substrate preincubated for 10 mins followed by substrate addition measured after 10 mins by malachite green reagent-based assay.

Assay [4] concerns the target T4, Ectonucleoside triphosphate diphosphohydrolase 2 (Homo sapiens, UniProt Q9Y5L3).
T4 sequence (Q9Y5L3 whole entry): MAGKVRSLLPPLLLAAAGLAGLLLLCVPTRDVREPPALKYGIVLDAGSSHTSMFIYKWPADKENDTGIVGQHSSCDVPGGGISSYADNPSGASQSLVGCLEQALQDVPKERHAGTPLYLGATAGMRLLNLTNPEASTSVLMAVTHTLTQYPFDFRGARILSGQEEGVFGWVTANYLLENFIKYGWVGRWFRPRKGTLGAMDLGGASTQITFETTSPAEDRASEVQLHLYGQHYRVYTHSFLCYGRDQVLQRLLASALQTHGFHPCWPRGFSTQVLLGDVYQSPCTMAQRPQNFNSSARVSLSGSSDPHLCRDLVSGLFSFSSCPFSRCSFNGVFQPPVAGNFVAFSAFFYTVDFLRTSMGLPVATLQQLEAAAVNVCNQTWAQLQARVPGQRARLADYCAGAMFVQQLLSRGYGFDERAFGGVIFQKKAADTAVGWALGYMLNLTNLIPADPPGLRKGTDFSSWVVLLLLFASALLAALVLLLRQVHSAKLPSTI
Briefly: Inhibition of human NTPDase2 expressed in African green monkey COS7 cell membrane fraction using ATP as substrate preincubated for 10 mins followed by substrate addition measured after 10 mins by malachite green reagent-based assay.

For assay [5], the target named is T5, Ectonucleoside triphosphate diphosphohydrolase 8 (Homo sapiens, UniProt Q5MY95).
T5 sequence (Q5MY95 whole entry): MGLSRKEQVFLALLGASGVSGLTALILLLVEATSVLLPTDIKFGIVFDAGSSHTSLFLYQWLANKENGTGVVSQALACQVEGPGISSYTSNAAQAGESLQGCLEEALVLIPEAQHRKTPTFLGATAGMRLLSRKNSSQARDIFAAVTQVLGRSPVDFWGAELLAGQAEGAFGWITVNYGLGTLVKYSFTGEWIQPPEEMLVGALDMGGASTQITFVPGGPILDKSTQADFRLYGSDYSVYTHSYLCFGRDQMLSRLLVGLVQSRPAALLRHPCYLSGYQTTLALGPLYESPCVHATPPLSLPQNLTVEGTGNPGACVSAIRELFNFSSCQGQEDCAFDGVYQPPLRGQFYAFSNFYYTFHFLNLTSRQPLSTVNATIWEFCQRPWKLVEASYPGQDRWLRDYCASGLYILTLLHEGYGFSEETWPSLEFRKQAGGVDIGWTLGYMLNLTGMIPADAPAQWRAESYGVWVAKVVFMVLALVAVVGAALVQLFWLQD
Put plainly: Inhibition of human NTPDase8 expressed in African green monkey COS7 cell membrane fraction using ATP as substrate preincubated for 10 mins followed by substrate addition measured after 10 mins by malachite green reagent-based assay.

Assay [6] concerns the target T6, Ectonucleoside triphosphate diphosphohydrolase 3 (Homo sapiens, UniProt O75355).
T6 sequence (O75355 whole entry): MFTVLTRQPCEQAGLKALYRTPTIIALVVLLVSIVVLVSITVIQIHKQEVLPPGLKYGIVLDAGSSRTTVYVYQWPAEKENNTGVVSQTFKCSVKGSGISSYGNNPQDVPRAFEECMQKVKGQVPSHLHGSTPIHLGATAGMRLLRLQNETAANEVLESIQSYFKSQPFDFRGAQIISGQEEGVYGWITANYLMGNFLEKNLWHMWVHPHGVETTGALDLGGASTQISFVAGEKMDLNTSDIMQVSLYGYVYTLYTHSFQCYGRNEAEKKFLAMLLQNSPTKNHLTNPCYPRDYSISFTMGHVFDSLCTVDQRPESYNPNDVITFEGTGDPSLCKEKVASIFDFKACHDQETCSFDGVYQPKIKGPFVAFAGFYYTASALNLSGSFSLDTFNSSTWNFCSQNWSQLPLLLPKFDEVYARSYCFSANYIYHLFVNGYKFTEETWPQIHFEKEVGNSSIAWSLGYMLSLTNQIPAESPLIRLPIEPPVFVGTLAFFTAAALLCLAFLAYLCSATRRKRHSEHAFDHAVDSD
Put plainly: Inhibition of human NTPDase3 expressed in African green monkey COS7 cell membrane fraction using ATP as substrate preincubated for 10 mins followed by substrate addition measured after 10 mins by malachite green reagent-based assay.

Consider `FC(F)(F)c1nc2c(Br)cccc2c(Cl)c1Br`, for which the IC50 in assay [1] worked out at 7.65 µM; in assay [2], 0.39 µM.
With `Cc1cccc(-c2c(C(F)(F)F)nc3c(-c4cccc(C)c4)cccc3c2-c2cccc(C)c2)c1`, the IC50 was 20.7 µM in assay [1]; over 300 µM in assay [3]; over 300 µM in assay [4]; over 300 µM in assay [5]; over 300 µM in assay [6]; over 100 µM in assay [2].
For `FC(F)(F)c1nc2c(-c3ccccc3)cccc2c(Cl)c1-c1ccccc1`, the concentration for half-maximal inhibition (IC50) was 2.81 µM in assay [1]; over 300 µM in assay [3]; over 300 µM in assay [4]; over 300 µM in assay [5]; over 300 µM in assay [6]; over 100 µM in assay [2].
As for `COc1ccc(OC)c(-c2cccc3c(Cl)c(Br)c(C(F)(F)F)nc23)c1`, the IC50 was determined as 0.25 µM in assay [1] and 0.36 µM in assay [2].
The corresponding values for `Fc1ccc(-c2c(C(F)(F)F)nc3c(-c4ccc(F)cc4)cccc3c2-c2ccc(F)cc2)cc1` are 0.51 µM and over 100 µM.
Taken in the same sequence, the figures for `N#Cc1cccc(-c2cccc3c(Cl)c(Br)c(C(F)(F)F)nc23)c1` were 0.35 µM and over 100 µM.
On to `FC(F)(F)c1nc2c(-c3ccsc3)cccc2c(Cl)c1Br`, for which the IC50 in assay [1] was 5.76 µM; in assay [3], over 300 µM; in assay [4] it was over 300 µM; in assay [5], over 300 µM; in assay [6], over 300 µM; in assay [2], over 100 µM.
On to `FC(F)(F)c1nc2c(-c3ccccc3)cccc2c(-c2ccccc2)c1-c1ccccc1`, for which the IC50 in assay [1] was 0.18 µM; in assay [2] it was over 100 µM.
The corresponding values for `FC(F)(F)c1ccc(-c2cccc3c(Cl)c(Br)c(C(F)(F)F)nc23)cc1` are 0.31 µM and over 100 µM.
The corresponding values for `COc1ccc(-c2cccc3c(Cl)c(Br)c(C(F)(F)F)nc23)cc1` are 0.39 µM and 1.14 µM.
The corresponding values for `Cc1ccc(-c2c(C(F)(F)F)nc3c(-c4ccc(C)cc4)cccc3c2-c2ccc(C)cc2)cc1` are 0.73 µM and over 100 µM.
Consider `COc1ccc(-c2c(C(F)(F)F)nc3c(-c4ccc(OC)cc4)cccc3c2-c2ccc(OC)cc2)cc1`, for which the IC50 in assay [1] was 9.87 µM; in assay [3] it was over 300 µM; in assay [4] it was over 300 µM; in assay [5] it was over 300 µM; in assay [6], over 300 µM; in assay [2], over 100 µM.
Take `O=c1c(Br)c(C(F)(F)F)[nH]c2c(Br)cccc12`: the IC50 in assay [1] turned out to be 0.63 µM; in assay [2], 2.42 µM.
Molecule `Cc1ccc(C(=O)Nc2ccc(S(=O)(=O)O)c3cc(S(=O)(=O)O)cc(S(=O)(=O)O)c23)cc1NC(=O)c1cccc(NC(=O)Nc2cccc(C(=O)Nc3cc(C(=O)Nc4ccc(S(=O)(=O)O)c5cc(S(=O)(=O)O)cc(S(=O)(=O)O)c45)ccc3C)c2)c1` [SURAMIN] returned a half-inhibitory concentration (IC50) in assay [5] of over 100 µM.
